According to ChEMBL document CHEMBL4028883 (J Med Chem, 2017):
In brackets after ≈: the same amount, converted by molar mass.

How the values were obtained:
[1] = Total AUC in rabbit at 0.5 mg/kg; assay type: ADME, organism-based, Oryctolagus cuniculus; set-up: dose 0.5 mg/kg, time AUCmax; conditions: in vivo
[2] = Volume of distribution at steady state in cynomolgus monkey at 2.03 mg/kg; assay type: ADME, organism-based, Macaca fascicularis; conditions: in vivo, read-out: Vdss
[3] = Clearance in rat at 0.5 mg/kg; assay type: ADME, organism-based; conditions: in vivo
[4] = Clearance in rabbit at 0.5 mg/kg; assay type: ADME, organism-based, Oryctolagus cuniculus; conditions: in vivo
[5] = Clearance in dog at 4.75 mg/kg; assay type: ADME, organism-based, Canis lupus familiaris; conditions: in vivo
[6] = Clearance in cynomolgus monkey at 2.03 mg/kg; assay type: ADME, organism-based, Macaca fascicularis; conditions: in vivo
[7] = Volume of distribution at steady state in rat at 0.5 mg/kg; assay type: ADME, organism-based; conditions: in vivo, read-out: Vdss
[8] = Volume of distribution at steady state in rabbit at 0.5 mg/kg; assay type: ADME, organism-based, Oryctolagus cuniculus; conditions: in vivo, read-out: Vdss
[9] = Volume of distribution at steady state in dog at 4.75 mg/kg; assay type: ADME, organism-based, Canis lupus familiaris; conditions: in vivo, read-out: Vdss
[10] = Total AUC in rat at 0.5 mg/kg; assay type: ADME, organism-based; set-up: dose 0.5 mg/kg, time AUCmax; conditions: in vivo
[11] = Total AUC in dog at 4.75 mg/kg; assay type: ADME, organism-based, Canis lupus familiaris; set-up: dose 4.75 mg/kg, time AUCmax; conditions: in vivo
[12] = Total AUC in cynomolgus monkey at 2.03 mg/kg; assay type: ADME, organism-based, Macaca fascicularis; set-up: dose 2.03 mg/kg, time AUCmax; conditions: in vivo
[13] = Half life in rat at 0.5 mg/kg; assay type: ADME, organism-based; conditions: in vivo
[14] = Half life in rabbit at 0.5 mg/kg; assay type: ADME, organism-based, Oryctolagus cuniculus; conditions: in vivo
[15] = Half life in dog at 4.75 mg/kg; assay type: ADME, organism-based, Canis lupus familiaris; conditions: in vivo
[16] = Half life in cynomolgus monkey at 2.03 mg/kg; assay type: ADME, organism-based, Macaca fascicularis; conditions: in vivo
[17] = Mean residence time in rat at 0.5 mg/kg; assay type: ADME, organism-based; conditions: in vivo
[18] = Mean residence time in rabbit at 0.5 mg/kg; assay type: ADME, organism-based, Oryctolagus cuniculus; conditions: in vivo
[19] = Mean residence time in cynomolgus monkey at 2.03 mg/kg; assay type: ADME, organism-based, Macaca fascicularis; conditions: in vivo
[20] = Half life in dog liver microsomes; assay type: ADME, Canis lupus familiaris, microsome
[21] = Lipophilicity, log D of the compound by HPLC method; assay type: physicochemical
[22] = Acid dissociation constant, pKa of the compound; assay type: physicochemical
[23] = Base dissociation constant, pKa of the compound; assay type: physicochemical
[24] = Aqueous solubility of the compound at pH 6.7; assay type: physicochemical; conditions: aqueous medium
[25] = Solubility of the compound in phosphate buffer at pH 7.4; assay type: physicochemical
[26] = Solubility of the compound in Tris buffer at pH 8; assay type: physicochemical
[27] = Aqueous solubility of the compound at pH 8.3; assay type: physicochemical; conditions: aqueous medium
[28] = Aqueous solubility of the compound at pH 8.5; assay type: physicochemical; conditions: aqueous medium
[29] = Chemical stability of the compound in phosphate buffer at pH 6.5 at 25 degC after 90 days by HPLC method; assay type: physicochemical; conditions: read-out: Stability
[30] = Chemical stability of the compound in phosphate buffer at pH 7.4 at 25 degC after 90 days by HPLC method; assay type: physicochemical; conditions: read-out: Stability
[31] = Chemical stability of the compound in Tris buffer at pH 8 at 25 degC after 90 days by HPLC method; assay type: physicochemical; conditions: read-out: Stability
[32] = Chemical stability of the compound in phosphate buffer at pH 6.5 at 37 degC after 90 days by HPLC method; assay type: physicochemical; conditions: read-out: Stability
[33] = Chemical stability of the compound in phosphate buffer at pH 7.4 at 37 degC after 90 days by HPLC method; assay type: physicochemical; conditions: read-out: Stability
[34] = Chemical stability of the compound in Tris buffer at pH 8 at 37 degC after 90 days by HPLC method; assay type: physicochemical; conditions: read-out: Stability
[35] = Chemical stability of the compound in phosphate buffer at pH 6.5 at 50 degC after 90 days by HPLC method; assay type: physicochemical; conditions: read-out: Stability
[36] = Chemical stability of the compound in phosphate buffer at pH 7.4 at 50 degC after 90 days by HPLC method; assay type: physicochemical; conditions: read-out: Stability
[37] = Chemical stability of the compound in Tris buffer at pH 8 at 50 degC after 90 days by HPLC method; assay type: physicochemical; conditions: read-out: Stability
in vivo [38] = conditions: rat, iv
in vivo [39] = conditions: rat, iv; remark: listed apart in the source
in vivo [40] = conditions: rat, iv; remark: listed apart in the source
in vivo [41] = conditions: rat, iv; remark: listed apart in the source
physchem = conditions: phosphate buffer, pH 6.5
in vitro [42] = conditions: human, liver microsomes
in vitro [43] = conditions: rat, liver microsomes

- AUC [1]: 0.27 µM·h
- Vd [2]: 1.16 L/kg
- clearance [3]: 31 mL/min/kg
- clearance [4]: 43 mL/min/kg
- clearance [5]: 15 mL/min/kg
- clearance [6]: 31 mL/min/kg
- Vd [7]: 0.32 L/kg
- Vd [8]: 0.71 L/kg
- Vd [9]: 1.02 L/kg
- AUC [10]: 0.441 µM·h
- AUC [11]: 7.76 µM·h
- AUC [12]: 1.59 µM·h
- half-life [13]: 13.2 min
- half-life [14]: 36 min
- half-life [15]: 63 min
- half-life [16]: 46.8 min
- MRT [17]: < 60 min
- MRT [18]: < 60 min
- MRT [19]: < 60 min
- half-life [20]: 120 min
- logD [21]: 1.4
- pKa [22]: 4.1
- pKa [23]: 4.7
- solubility [24]: 260 µg/mL (≈ 394 µM)
- solubility [25]: 1500 µg/mL (≈ 2280 µM)
- solubility [26]: 11000 µg/mL (≈ 16700 µM)
- solubility [27]: > 25000 µg/mL
- solubility [28]: > 100000 µg/mL
- remaining at […] [29]: 99.9%
- remaining at […] [30]: 100%
- remaining at […] [31]: 99%
- remaining at […] [32]: 99.8%
- remaining at […] [33]: 99%
- remaining at […] [34]: 99.7%
- remaining at […] [35]: 95.4%
- remaining at […] [36]: 94.6%
- remaining at […] [37]: 94%
- clearance (in vivo [38]): 16 mL/min/kg
- Vd (in vivo [39]): 0.75 L/kg
- AUC (in vivo [40]): 0.309 µM·h
- half-life (in vivo [41]): 52.8 min
- solubility at 24 h (physchem): 880 µg/mL (≈ 1340 µM)
- half-life (in vitro [42]): 108 to 120 min
- half-life (in vitro [43]): 59 min
Structure (SMILES): CN1CCN(c2cccc3c2CCN(C(=O)/C=C/c2c(-n4cnnn4)ccc(Cl)c2F)[C@@H]3C(=O)Nc2ccc(C(=O)O)cc2)C(=O)C1 [BMS-962212]
